Laboratory results reported in patent publication US20230242669A1, “ANTIBODY THAT BINDS ERBB-2 AND ERBB-3” (Merus N.V., priority 2014, published 2023).

Experiments:
SKBR-3 and N87 cells = assay: Internalization of pH-sensitive dye labelled antibodies; format: cell-based, human; conditions: 100 nM labelled antibody, 1 ng/ml HRG
JIMT-1 cells = assay: JIMT-1 proliferation in soft agar; format: cell-based, human; conditions: 10-0.003 µg/ml, 8 days
Procedure: To this aim 96 well suspension cell culture plates were prepared. 100 µL of the soft agar bottom layer (0.6% final concentration in complete medium) was poured and left to solidify. 50 µL of the soft agar top layer (0.4% final concentration) containing 10.000 JIMT-1 cells/well were then added on top, solidified and such 96 well plates incubated overnight at 37° C., 10% CO2. […] Subsequently, the assay was incubated in cell culture incubators for 8 days. Finally, the cells were incubated with Alamar Blue for 3-5 h at 37° C. and fluorescence intensity was determined (excitation: 560 nm; emission: 590 nm). […] (FIG. 8).

[1] = test system: SKBR-3 cells with FcγRIIIa reporter cells; assay: ADCC Reporter Bioassay (Promega); format: cell-based, human; conditions: SKBR-3, V158 effector cells
Procedure: In a different ADCC setup, the ADCC Reporter Bioassay (Promega) was used. The bioassay uses engineered Jurkat cells stably expressing the FcYRIIIa receptor, V158 (high affinity) or F158 (low affinity) variant, and an NFAT response element driving expression of firefly luciferase. The assay was validated by comparing data obtained with the ADCC Reporter Bioassay to the classical ^51Cr release assay. The ADCC assays were performed using the Promega ADCC Bioassay kit using 384 white well plates. In this experimental setup SKBR-3 cells were plated at a density of 1000 cells/well in 30 µl assay medium (RPMI with 4% low IgG serum) 20-24 H before the bioassay. The next day, the culture medium was removed. […] 10 µl antibody dilutions were added to the wells. The starting concentration of the antibody was 10 µg/ml and a 10 points semi-log fold serial dilution was generated to provide a full dose-response curve. Finally, 5 µl of ADCC Bioassay effector cells (15000 cells/well, V158) were added. The cells were incubated for 6 H at 37° C. Next, 15 µl BIO-Glo luciferase substrate was added and 5 minutes later luminescence was detected in a plate reader.
ADCC activity was measured by measuring luciferase activity. […] (FIG. 15)

N87 cells = assay: HRG driven N87 proliferation assay; format: cell-based, human
Procedure: Upregulation of NRG1-β1 is a key resistance mechanism against HER2 targeted therapies (Wilson, 2012). […] N87 cells were cultured in RPMI 1640 supplemented with 10% heat inactivated FBS. For the proliferation assay subconfluent cell cultures of N87 cells were washed with PBS trypsinized and trypsin was inactivated by adding culture medium. Cells were washed twice in large volumes of assay medium (RPMI 1640 medium containing 0.05% BSA and 10 µg/ml Holo Transferrin). Antibodies were diluted in a semi-log titration that varied from 1-0.0001 µg/ml. Cells were added at a density of 10000 cells/well in the presence of 100 ng/ml final concentration of HRG. The cells were cultivated for 3 days at 37° C., 5% CO2, in 95% relative humidity. ALAMAR BLUE™ (INVITROGEN®) was added according to the manufacturer’s instructions and incubated for 6 hours at 37° C., 5% CO2, in 95% relative humidity in the dark. Fluorescence was measured at 550 nm excitation with 590 nm emission wavelength.
Upregulation of NRG 1-β1 is a key resistance mechanism against HER2 targeted therapies (Wilson, 2012). […] To this aim N87 cells were cultured in RPMI 1640 supplemented with 10% heat inactivated FBS. […] Fluorescence was measured at 550 nm excitation with 590 nm emission wavelength.

[2] = test system: HER2:HER3 signaling in JIMT-1 tumors; assay: VeraTag analysis of JIMT-1 tumors; format: in vivo, mice
Procedure: Next, samples were paraffin-embedded. Sections of 7 um in thickness were sliced with a microtome (LEICA) and placed on positively charged glass slides (VWR) with serial number labeled. Slides were air-dried for 30 min and then baked in a heated oven set at 60° C. Next samples were processed for different VeraTag analysis. Total HER2 analysis (HT2) according to U.S. Pat. Appl. No. 12/340,436, total HER3 analysis (H3T) according to U.S. Pat. No. 8,349,574; U.S. Pat. Appl. No. 2013/0071859 and finally HER2-HER3 heterodimer (H23D), HER3pY1289 (H3pY1289) and HER3-PI3 kinase (H3PI3K) according to Int′l Patent Appl. No. PCT/US2014/033208.

Substance: PB4188: bispecific HER2xHER3 IgG: HER2 arm MF3958, HER3 arm MF3178
- Internalization (SKBR-3 and N87 cells): internalizes to the same extend as trastuzumab
- Inhibition of JIMT-1 proliferation (JIMT-1 cells): dose dependent inhibition of JIMT-1 proliferation
- ADCC potency compared to parental monoclonals or their combination [1]: higher ADCC potentency
- Anti-proliferative activity on N87 (N87 cells; 100 ng/ml HRG): superior activity over anti-HER2 or anti-HER3 monoclonal antibodies
- Anti-proliferative activity on N87 versus PG3178 (N87 cells; increasing HRG 0.04-39.5 nM): superior activity compared to the parental anti-HER3 monoclonal antibody
- Total HER2, HER3 or phosphorylated HER3 in tumors versus controls ([2]; 25 mg/kg): no difference
- HER2:HER3 dimers in tumors versus untreated controls ([2]; 25 mg/kg, both dosing regimens): significant PB4188 mediated reduction in HER2:HER3 dimers
- HER3-p85 (PI3K) in tumors versus untreated controls ([2]; 4H after dosing): significant reduction in HER3-p85 (PI3K)
